Holding throughout (type): cell-based
Data set [1] deals with Staphylococcus aureus (S. aureus—ATCC 29213). The data set is described as follows: Antibacterial test by colony counting method, S. aureus. The conditions noted are these: for logarithm reduction of bacteria / percentage reduction of bacteria: S. aureus ~8 Log CFU/mL. Here is the method:
(§1) The antibacterial activity of the nanofiber mats was tested by colony counting method against Staphylococcus aureus (S. aureus) and E. coli, which are commonly found on burn wounds. For the antibacterial studies, logarithmic-phase cultures were prepared by initially suspending several colonies in phosphate buffered saline (PBS, 0.1 M, pH 7.4) at a density equivalent to a 0.5 McFarland standard of 1×10^8 colony forming units (CFU) mL^−1 and then diluted 100 times to 1×10^6 CFU mL^−1. 15 μL of the diluted E-coli and S. aureus suspension was further diluted into 45 mL cation-supplemented MuellerHinton (MH) broth and TSB, respectively. After culturing in the incubator at 37° C. for overnight, the concentration of bacteria went up to 10^8 CFU mL^−1. 2 mL of bacteria suspension was added to 4 mg of nanofibers and incubated. At the predetermined contact times, 150 μL of bacteria culture was taken from the flask, neutralized, and decimal serial dilutions with PBS were repeated with each initial sample. 30 μL of the diluted sample was then spread onto four zones of a Tryptone Soya agar plate (CM 0131, OXOID). After incubation of the plates at 37° C. for 18 h, the number of viable bacteria (colonies) was counted manually for control (A, bacteria suspension without sample) and BTAC-loaded nanofibers (B). Bacteria reduction was reported as percentage and Log 10. The percentage reduction of bacteria (%)=(A−B)/A×100; and logarithm reduction=log(A/B).

Data set [2] deals with Escherichia coli (E-coli—ATCC 25922). Description: Antibacterial test by colony counting method, E. coli. The conditions noted are these: for logarithm reduction of bacteria / percentage reduction of bacteria: E. coli ~8 Log CFU/mL. Here is the method:
as §1

The test system of data set [3] is ATCC-PCS-201 neonatal human dermal fibroblast. The data set is described as follows: In vitro cytotoxicity assay (MTT) on fibroblast cells. The settings on record: after 24 h of contact, free BTAC at 34 mg/L. Here is the method: An in vitro cytotoxicity assay was conducted on fibroblast cells (ATCC-PCS-201 neonatal human dermal fibroblast) to evaluate the effect of drug-loaded nanofibers. Nanofibers were cut in to the same shape and weighted to 4 mg (triplicate). They were pre-soaked in 1 mL of ethanol for 10 min. Samples were exposed to UV light for 45 min (each side). Fibroblast cells were cultured in 24 well-plates at density of 1×10^5 (cell/mL). After reaching to 90% confluence, 2 mL of fibroblast culture medium was added to each of the wells and the dressings. Afterwards, the cells were incubated at 37° C. for 24 h. Cell viability was determined using MTT assay after removal of dressings. Each well received 500 μL of 1:10 (v/v) MTT and fibroblast medium solution. Subsequently, after 2 h incubation at 37° C., the culture medium with the MTT solution were aspirated and replaced by 500 μL DMSO. Finally, 100 μL aliquots from each well (in triplicate) were transferred to 96-well plates and viability of cells was evaluated using spectrophotometer at 570 nm wavelength (PowerWave™ XS2 Microplate Spectrophotometer, BioTek Instruments Inc., Canada).

Data on one compound can be found in patent US11911521B2, “Antibacterial nanofiber” (UNIVERSITY OF MANITOBA, priority 2017, dated 2024).

For the compound `CCCCCCCCCCCCCC[N+](C)(C)Cc1ccccc1` [BTAC, benzyl dimethyl tetradecyl ammonium chloride], the “logarithm reduction of bacteria” value in data set [1] (contact time 5 min) worked out at 1.4 ± 0.2 Log10; in data set [1] (contact time 10 min), 1.8 ± 0.3 Log10; in data set [1] (contact time 20 min) it was 8.9 Log10; in data set [2] (contact time 5 min) it was 1.3 ± 0.0 Log10; in data set [2] (contact time 10 min) it was 1.4 ± 0.1 Log10; in data set [2] (contact time 20 min), 1.9 ± 0.1 Log10. In data set [2] (contact time 30 min), the “logarithm reduction of bacteria” value was 8.9 Log10. Besides, the “percentage reduction of bacteria” value is on record as 96.1 ± 0.2% in data set [1] (contact time 5 min); 98.5 ± 0.9% in data set [1] (contact time 10 min); 100.0% in data set [1] (contact time 20 min); 95.3 ± 0.3% in data set [2] (contact time 5 min); 96.0 ± 0.2% in data set [2] (contact time 10 min); 98.8 ± 0.5% in data set [2] (contact time 20 min). The “percentage reduction of bacteria” value in data set [2] (contact time 30 min) was 100.0%. For the same compound, the “time to 100% bacteria inhibition” value in data set [1] (against S. aureus) and in data set [2] (against E. coli) was less than 60 min each time. This compound yielded a fibroblast cell viability in data set [3] of 55.2±4.0.
